# In ChEMBL document CHEMBL4422622, “Identification of Mineralocorticoid Receptor Modulators with Low Impact on Electrolyte Homeostasis but Maintained Organ Protection” (J Med Chem, 2019):
# Columns and labels:
# [1] = target: T1, Mineralocorticoid receptor (Homo sapiens, UniProt P08235)
# T1 sequence (P08235 whole entry): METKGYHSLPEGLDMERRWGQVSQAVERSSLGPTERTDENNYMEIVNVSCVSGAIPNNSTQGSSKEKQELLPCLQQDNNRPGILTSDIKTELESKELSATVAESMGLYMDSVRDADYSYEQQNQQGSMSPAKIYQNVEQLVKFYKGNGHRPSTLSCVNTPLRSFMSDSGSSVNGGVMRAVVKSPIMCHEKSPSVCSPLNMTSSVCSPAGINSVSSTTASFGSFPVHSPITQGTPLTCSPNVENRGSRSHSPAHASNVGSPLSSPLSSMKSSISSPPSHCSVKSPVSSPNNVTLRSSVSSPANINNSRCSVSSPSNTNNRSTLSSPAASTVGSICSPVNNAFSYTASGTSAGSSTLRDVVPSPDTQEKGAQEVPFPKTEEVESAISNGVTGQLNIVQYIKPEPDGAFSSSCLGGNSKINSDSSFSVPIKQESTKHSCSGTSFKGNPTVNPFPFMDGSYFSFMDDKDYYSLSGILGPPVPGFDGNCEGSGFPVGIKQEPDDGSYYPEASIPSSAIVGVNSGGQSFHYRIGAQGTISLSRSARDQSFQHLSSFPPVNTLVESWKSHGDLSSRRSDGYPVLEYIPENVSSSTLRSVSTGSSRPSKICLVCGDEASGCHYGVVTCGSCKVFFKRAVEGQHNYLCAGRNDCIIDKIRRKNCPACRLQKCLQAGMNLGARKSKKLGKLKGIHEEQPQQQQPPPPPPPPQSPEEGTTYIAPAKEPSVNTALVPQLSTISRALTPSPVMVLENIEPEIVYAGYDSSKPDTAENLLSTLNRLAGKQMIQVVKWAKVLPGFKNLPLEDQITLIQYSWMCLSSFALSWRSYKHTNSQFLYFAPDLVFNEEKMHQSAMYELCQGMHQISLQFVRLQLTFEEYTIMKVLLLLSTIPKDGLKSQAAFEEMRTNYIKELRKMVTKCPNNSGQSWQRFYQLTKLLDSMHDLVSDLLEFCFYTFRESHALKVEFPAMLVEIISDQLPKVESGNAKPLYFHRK
# Description: Antagonist activity at gal4-fused human mineralocorticoid receptor LBD expressed in UAS-MR-bla HEK293 cells by luciferase reporter gene assay
# [2] = Fraction unbound in Han Wistar rat plasma at 1 uM after 4 hrs by LC/MS/MS analysis; assay type: ADME, cell-free
# [3] = target: T1, Mineralocorticoid receptor; remark: listed apart in the source
# Description: Modulation activity at human mineralocorticoid receptor in human EA.hy926 cells assessed as blocking of nuclear translocation of mineralocorticoid receptor in presence of aldosterone by receptor translocation assay
# Glucocorticoid receptor = target: T2, Glucocorticoid receptor (Homo sapiens, UniProt P04150)
# T2 sequence (P04150 whole entry): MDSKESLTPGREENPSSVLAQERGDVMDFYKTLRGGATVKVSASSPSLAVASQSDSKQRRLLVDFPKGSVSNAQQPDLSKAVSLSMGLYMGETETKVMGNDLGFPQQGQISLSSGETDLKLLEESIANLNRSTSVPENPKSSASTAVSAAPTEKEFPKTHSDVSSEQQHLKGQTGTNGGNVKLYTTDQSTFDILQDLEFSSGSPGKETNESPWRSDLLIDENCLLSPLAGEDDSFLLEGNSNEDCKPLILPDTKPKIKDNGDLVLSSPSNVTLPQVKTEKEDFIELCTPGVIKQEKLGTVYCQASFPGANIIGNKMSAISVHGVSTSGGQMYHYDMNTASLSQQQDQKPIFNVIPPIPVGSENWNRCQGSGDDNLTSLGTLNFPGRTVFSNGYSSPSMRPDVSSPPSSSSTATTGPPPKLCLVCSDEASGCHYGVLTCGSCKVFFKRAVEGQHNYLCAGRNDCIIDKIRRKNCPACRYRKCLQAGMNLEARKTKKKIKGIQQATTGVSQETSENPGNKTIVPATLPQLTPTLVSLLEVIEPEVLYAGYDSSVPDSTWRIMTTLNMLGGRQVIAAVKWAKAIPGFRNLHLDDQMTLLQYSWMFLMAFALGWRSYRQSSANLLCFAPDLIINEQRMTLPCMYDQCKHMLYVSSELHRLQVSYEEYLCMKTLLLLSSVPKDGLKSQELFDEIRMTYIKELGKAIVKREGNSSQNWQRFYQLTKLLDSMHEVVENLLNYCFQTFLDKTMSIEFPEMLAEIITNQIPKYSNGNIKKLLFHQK
# Description: Binding affinity to recombinant human GR LBD by fluormone GS red-fluorescence polarization assay
# [4] = Octanol-water partitioning co-efficient, log D of the compound at pH 7.4 by LC/MS/MS analysis; assay type: physicochemical
# [5] = target: T3, Mineralocorticoid receptor (Rattus norvegicus, UniProt P22199)
# T3 sequence (P22199 whole entry): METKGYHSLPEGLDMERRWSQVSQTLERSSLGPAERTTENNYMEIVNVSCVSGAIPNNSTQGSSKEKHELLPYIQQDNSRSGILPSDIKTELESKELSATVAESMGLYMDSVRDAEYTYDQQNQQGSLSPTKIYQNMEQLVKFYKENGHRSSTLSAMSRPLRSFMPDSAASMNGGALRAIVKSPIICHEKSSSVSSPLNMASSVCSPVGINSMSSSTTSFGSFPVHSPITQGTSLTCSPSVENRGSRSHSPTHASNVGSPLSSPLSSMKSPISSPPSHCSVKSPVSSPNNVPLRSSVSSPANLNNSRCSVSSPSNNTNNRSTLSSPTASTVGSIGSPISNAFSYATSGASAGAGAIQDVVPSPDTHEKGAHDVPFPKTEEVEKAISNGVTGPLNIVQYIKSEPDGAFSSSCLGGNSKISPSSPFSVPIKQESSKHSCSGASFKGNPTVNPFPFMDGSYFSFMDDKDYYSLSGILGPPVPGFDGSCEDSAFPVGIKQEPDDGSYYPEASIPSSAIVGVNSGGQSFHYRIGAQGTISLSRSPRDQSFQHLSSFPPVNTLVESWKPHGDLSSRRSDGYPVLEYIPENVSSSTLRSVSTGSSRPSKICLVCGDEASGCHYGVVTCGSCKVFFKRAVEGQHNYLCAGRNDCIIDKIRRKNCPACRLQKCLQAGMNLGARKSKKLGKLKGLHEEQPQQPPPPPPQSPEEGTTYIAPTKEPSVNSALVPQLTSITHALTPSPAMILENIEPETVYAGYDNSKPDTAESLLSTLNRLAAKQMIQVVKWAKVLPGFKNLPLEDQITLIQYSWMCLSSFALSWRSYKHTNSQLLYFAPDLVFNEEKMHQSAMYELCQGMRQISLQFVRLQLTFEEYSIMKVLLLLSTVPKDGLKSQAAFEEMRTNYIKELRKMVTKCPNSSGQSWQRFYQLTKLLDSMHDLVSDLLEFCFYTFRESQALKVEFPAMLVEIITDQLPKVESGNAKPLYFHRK
# Description: Antagonist activity at gal4-fused rat mineralocorticoid receptor LBD in expressed in human U2OS cells by luciferase reporter gene assay
# [6] = Intrinsic clearance in human hepatocytes assessed per million cells at 1 uM measured up to 120 mins in presence of NADPH by LC-MS/MS analysis; assay type: ADME, cell-based, Hepatocyte; conditions: read-out: CLH
# [7] = target: T1, Mineralocorticoid receptor; remark: listed apart in the source
# Description: Modulation activity at human mineralocorticoid receptor in human EA.hy926 cells assessed as induction of nuclear translocation of mineralocorticoid receptor in absence of aldosterone by receptor translocation assay
# [8] = Clearance in Han Wistar rat at 1.2 mg/kg, iv by LC-MS/MS analysis; assay type: ADME, organism-based; conditions: in vivo
# Rattus norvegicus [9] = test: Induction of hyperkalemia in Sprague-Dawley rat fed on low salt diet for 72 hrs assessed as increase in eplerenone-mediated Na+/K+ ratio in urine administered via oral gavage co-administered with after 8 hrs; assay type: organism-based; conditions: in vivo
# Rattus norvegicus [10] = test: Induction of hyperkalemia in Sprague-Dawley rat fed on low salt diet for 72 hrs assessed as increase in Na+/K+ ratio in urine administered via oral gavage after 8 hrs; assay type: organism-based; conditions: in vivo
# [11] = target: T1, Mineralocorticoid receptor; remark: listed apart in the source
# Description: Displacement of [3H]-aldosterone to human mineralocorticoid receptor LBD by radiometric binding assay
# [12] = Volume of distribution at steady state in Han Wistar rat at 1.2 mg/kg, iv by LC-MS/MS analysis; assay type: ADME, organism-based; conditions: in vivo, read-out: Vdss
# [13] = Intrinsic clearance in Han Wistar rat hepatocytes assessed per million cells at 1 uM after 4 hrs by LC/MS/MS analysis; assay type: ADME, cell-based, Hepatocyte; conditions: read-out: CLH
# [14] = Terminal half life in Han Wistar rat at 1.2 mg/kg, iv by LC-MS/MS analysis; assay type: ADME, organism-based; conditions: in vivo, read-out: beta t1/2 (converted)
# [15] = Oral bioavailability in Han Wistar rat at 48 mg/kg by LC-MS/MS analysis; assay type: ADME, organism-based; conditions: in vivo
structure (smiles),measurement,setting,value
CNC(=O)C[C@H]1COc2ccc(Cl)cc2N1C(=O)c1ccc2c(c1)NC(=O)CO2,IC50,[1],1000 nM
same,"fraction unbound at 4 h, 1 µM",[2],0.34
same,IC50,[3],100 nM
same,Ki,Glucocorticoid receptor,158 nM
same,logD,[4],1.8
same,IC50,[5],79.4 nM
same,hepatocyte CLint at 1 µM,[6],4.6 µL/min/1e6 cells
same,EC50,[7],> 10000 nM
same,clearance,[8],32 mL/min/kg
same,Activity,Rattus norvegicus [9],Toxic
same,Activity,Rattus norvegicus [10],Toxic
same,Ki,[11],100 nM
same,Vd,[12],0.8 L/kg
same,hepatocyte CLint at 1 µM,[13],20 µL/min/1e6 cells
same,half-life,[14],18 min
same,bioavailability,[15],45%
